For the assay, the target named is Mitogen-activated protein kinase kinase kinase kinase 1 (Homo sapiens, UniProt Q92918). In words: HPK-1 biochemical enzyme assay. The procedure:
Compound inhibitory potency was measured in an HPK-1 kinase inhibition assay. Briefly, recombinant full length HPK-1 enzyme (6.8 nM) was incubated with 10 μM ATP and 12.5 μM swine myelin basic protein (MBP) for 30 mins. at 25° C. in the presence of various concentrations of test compound or vehicle in 40 mM Tris.Cl pH7.4 buffer containing 20 mM MgCl2, 50 μM DTT and 0.1 mg/mL BSA. Reactions were quenched and reaction mixtures were then analyzed by an ADP-Glo kit which measures the formed ADP. The percent inhibition was calculated from the substrate conversion considering no enzyme control reactions for 100% inhibition and vehicle only reactions for 0% inhibition. The compounds were dissolved in DMSO and evaluated at 10 concentrations to determine an IC50 value.
Mitogen-activated protein kinase kinase kinase kinase 1, sequence (Q92918 whole entry): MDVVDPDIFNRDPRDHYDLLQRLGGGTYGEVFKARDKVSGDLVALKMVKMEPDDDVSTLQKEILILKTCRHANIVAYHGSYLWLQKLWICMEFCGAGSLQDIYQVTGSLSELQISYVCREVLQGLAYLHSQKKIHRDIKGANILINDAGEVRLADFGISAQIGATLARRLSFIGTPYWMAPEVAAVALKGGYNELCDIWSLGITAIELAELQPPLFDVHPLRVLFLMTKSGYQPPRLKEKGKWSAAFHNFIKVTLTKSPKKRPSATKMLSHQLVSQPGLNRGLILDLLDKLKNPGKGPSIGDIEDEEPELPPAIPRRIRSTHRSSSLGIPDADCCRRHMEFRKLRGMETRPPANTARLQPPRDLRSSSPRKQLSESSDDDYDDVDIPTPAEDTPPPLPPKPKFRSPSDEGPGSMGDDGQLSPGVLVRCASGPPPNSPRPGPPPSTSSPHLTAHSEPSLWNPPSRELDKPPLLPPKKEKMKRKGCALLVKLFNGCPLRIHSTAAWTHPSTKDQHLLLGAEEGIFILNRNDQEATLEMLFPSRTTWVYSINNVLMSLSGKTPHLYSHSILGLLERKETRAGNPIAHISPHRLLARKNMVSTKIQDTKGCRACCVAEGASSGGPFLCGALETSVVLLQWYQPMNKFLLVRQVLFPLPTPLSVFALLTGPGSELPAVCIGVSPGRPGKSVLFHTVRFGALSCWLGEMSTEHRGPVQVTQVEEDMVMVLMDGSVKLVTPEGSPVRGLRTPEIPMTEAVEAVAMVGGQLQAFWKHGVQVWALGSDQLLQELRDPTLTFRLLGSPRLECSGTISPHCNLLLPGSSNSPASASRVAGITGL
As to `COCCN1CCN(c2ccc(NC(=O)c3c(Nc4cnc5c(c4C)NCCO5)cc[nH]c3=O)cc2F)CC1` [US20250282794, Example 194], the 50% inhibitory concentration (IC50) (commonly the concentration needed to halve the response being measured) was under 10 nM.
For the compound `COCCCN1CCN(c2ccc(NC(=O)c3c(Nc4cnc5c(c4C)NCCO5)cc[nH]c3=O)cc2)CC1` [US20250282794, Example 277], the IC50 was under 10 nM.
In the case of `Cc1c(Nc2cc[nH]c(=O)c2C(=O)Nc2ccc(C3CCN(C(C)C)CC3)cc2)cnc2c1NCCO2` [US20250282794, Example 279], the IC50 is under 10 nM.
`Cc1c(Nc2cc[nH]c(=O)c2C(=O)Nc2ccc(N3CCN(C4CCCC4)CC3)c(N)c2)cnc2c1NCCO2` [US20250282794, Example 311] registered a half-inhibitory concentration (IC50) of under 10 nM.
As to `Cc1c(Nc2cc[nH]c(=O)c2C(=O)Nc2ccc(N3CCN(C)CC3)c(CN)c2)cnc2c1NCCO2` [US20250282794, Example 393], the IC50 is under 10 nM.
The compound `Cc1c(Nc2cc[nH]c(=O)c2C(=O)Nc2ccc(N3CCC(O)(CN(C)C)CC3)c(F)c2)cnc2c1NCC(C)O2` (stereo unspecified) [US20250282794, Example 388] gave an IC50 of under 10 nM.
The figure for `Cc1c(Nc2cc[nH]c(=O)c2C(=O)Nc2ccc(N3CCN(c4ccccn4)CC3)cc2)cnc2c1NCCO2` [US20250282794, Example 289] is under 10 nM.
To `Cc1c(Nc2cc[nH]c(=O)c2C(=O)Nc2ccc(N3CCN(C(=O)C4CCC4)CC3)cc2)cnc2c1NCCO2` [US20250282794, Example 314] belongs under 10 nM.
The figure for `Cc1c(Nc2cc[nH]c(=O)c2C(=O)Nc2ccc(-c3ccccc3)cc2)cnc2c1NCCO2` [US20250282794, Example 331] is 10 to 100 nM; for `Cc1c(Nc2cc[nH]c(=O)c2C(=O)Nc2ccc(N3CCC(O)CC3)cc2)cnc2c1NCCO2` [US20250282794, Example 278] it is under 10 nM; for `COCCN1CCN(c2ccc(NC(=O)c3c(Nc4cnc5c(c4C)NCCO5)cc[nH]c3=O)cc2C)CC1` [US20250282794, Example 275] it is under 10 nM.

For the origin of these results see BindingDB's records for patent US20250282794 (Curadev Pharma, 2025).
